Here are results for 30 compounds from patent publication EP4810500A1, “IMIDAZOL-2-ONE DERIVATIVE AND USE THEREOF IN MEDICINE” (Haisco Pharmaceutical Group Co., Ltd., priority 2023, dated 2025).

For orientation: pEC50 means −log10 of the EC50, conventionally taken in molar units. Low readings indicate a large EC50, high ones a small EC50.

Structures are written as SMILES. pEC50: −log10 of the molar value. Where only a bound is given, the exact number is not on record here.

GLP-1R, sequence (P43220 24-463): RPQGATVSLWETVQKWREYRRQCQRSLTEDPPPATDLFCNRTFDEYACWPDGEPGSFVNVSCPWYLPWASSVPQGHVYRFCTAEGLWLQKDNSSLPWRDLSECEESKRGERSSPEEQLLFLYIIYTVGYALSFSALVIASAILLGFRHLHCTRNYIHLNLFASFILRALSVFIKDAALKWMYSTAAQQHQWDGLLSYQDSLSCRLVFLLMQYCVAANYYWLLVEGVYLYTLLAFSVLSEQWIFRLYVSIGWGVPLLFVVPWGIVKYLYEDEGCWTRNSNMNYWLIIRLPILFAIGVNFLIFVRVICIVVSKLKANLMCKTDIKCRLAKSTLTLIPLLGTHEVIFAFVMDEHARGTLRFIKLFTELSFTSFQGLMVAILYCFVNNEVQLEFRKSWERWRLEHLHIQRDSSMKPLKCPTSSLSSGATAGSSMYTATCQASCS

This assay addresses GLP-1R (Homo sapiens, UniProt P43220). As to the kind of experiment: In vitro activity assay (cAMP HTRF, HEK293-CRE-luc-GLP-1R cells). Format: cell-based. The arrangement: expressed in transfected cells; host or cells: HEK293 (HEK293-CRE-luc-GLP-1R). The following applies: cAMP HTRF 665 nm/620 nm, 1 h incubation. The method, then: HEK293-CRE-luc-GLP-1R cells were seeded into a 384-well cell culture plate (Greiner #781946) at a certain cell density (5 µL/well). 5 µl/well of 2× working solution was added to the 384-well microplate. The microplate was sealed with parafilm and incubated in a 37°C 5% CO2 incubator (Thermo) for 1 h. Subsequently, the detection was performed using the cAMP-GS HIRANGE KIT (PerkinElmer, 62AM6PEB), and detection reagents were prepared according to the kit instruction manual. After the incubation, the detection reagents were added to the 384-well microplate, and the microplate was incubated for 1 h at room temperature in the dark. HTRF signals at 665 nm and 620 nm were then measured using a multimode microplate reader. Data were exported from the microplate reader in Excel format. GraphPad Prism was opened. The logarithm of the sample concentration was calculated. Using the logarithm of concentration as the x-axis and the 665 nm/620 nm ratio as the y-axis, four-parameter logistic fitting was performed to obtain the EC50 value of the curve. Table 1: EC50 of compounds against GLP-1
Consider `[2H]C([2H])([2H])N1C(=O)C2(CCOCC2)c2ccc(-n3ccn(-c4c5c(nn4-c4cc(C)c(F)c(C)c4)CCN(C(=O)c4cc6cc([C@H]7CCOC(C)(C)C7)ccc6n4[C@@]4(c6noc(=O)[nH]6)C[C@@H]4C)[C@H]5C)c3=O)c(F)c21` [Compound 8], for which the pEC50 is > 9.00.

Turning to `C[C@H]1c2c(nn(-c3ccc(F)c(C4(F)CC4)c3)c2-n2ccn(-c3ccc4c(c3F)N(C)C(=O)C43CCOCC3)c2=O)CCN1C(=O)c1cc2cc([C@H]3CCOC(C)(C)C3)ccc2n1[C@@]1(c2noc(=O)[nH]2)C[C@@H]1C` [Compound 46], the negative logarithm of the EC50 (pEC50) is > 9.00.

Turning to `[2H]C([2H])([2H])N1C(=O)C2(CCN(C(=O)C3C4COCC43)CC2)c2ccc(-n3ccn(-c4c5c(nn4-c4cc(C)c(F)c(C)c4)CCN(C(=O)c4cc6cc([C@H]7CCOC(C)(C)C7)ccc6n4[C@@]4(c6noc(=O)[nH]6)C[C@@H]4C)[C@H]5C)c3=O)cc21` (stereo partly drawn) [Compound 39], the pEC50 was > 9.00.

With `Cc1cc(-n2nc3c(c2-n2ccn(-c4ccc5c(c4)N(C)C(=O)C54CCN(C(=O)c5cnn(CC6CC6)c5)CC4)c2=O)[C@H](C)N(C(=O)c2cc4cc([C@H]5CCOC(C)(C)C5)ccc4n2[C@@]2(c4noc(=O)[nH]4)C[C@@H]2C)CC3)cc(C)c1F` [Compound 32], the pEC50 was > 9.00.

As to `Cc1cc(-n2nc3c(c2-n2ccn(-c4ccc5c(c4)N(C)C(=O)C54CCN(C(=O)C5CCN(C(=O)C6CC6)CC5)CC4)c2=O)[C@H](C)N(C(=O)c2cc4cc([C@H]5CCOC(C)(C)C5)ccc4n2[C@@]2(c4noc(=O)[nH]4)C[C@@H]2C)CC3)cc(C)c1F` [Compound 29], the negative logarithm of the EC50 (pEC50) was > 9.00.

Regarding `Cc1cc(-n2nc3c(c2-n2ccn(-c4ccc5c(c4)N(C)C(=O)C54CCN(C(=O)c5cnn(C(F)F)c5)CC4)c2=O)[C@H](C)N(C(=O)c2cc4cc([C@H]5CCOC(C)(C)C5)ccc4n2[C@@]2(c4noc(=O)[nH]4)C[C@@H]2C)CC3)cc(C)c1F` [Compound 30], the negative-log EC50 (pEC50) was > 9.00.

As for `Cc1cc(-n2nc3c(c2-n2ccn(-c4ccc5c(c4)N(C)C(=O)C54CCN(C(=O)C5CC5)CC4)c2=O)[C@H](C)N(C(=O)c2cc4cc([C@H]5CCOC(C)(C)C5)ccc4n2[C@@]2(c4noc(=O)[nH]4)C[C@@H]2C)CC3)cc(C)c1F` [Compound 12], the negative-log EC50 (pEC50) was > 9.00.

`[2H]C([2H])([2H])N1C(=O)C2(CCOCC2)c2ccc(-n3ccn(-c4c5c(nn4-c4cc(C)c(F)c(C)c4)CCN(C(=O)c4cc6cc(C7CCOCC7)ccc6n4[C@@]4(c6noc(=O)[nH]6)C[C@@H]4C)[C@H]5C)c3=O)c(F)c21` [Compound 57]: the negative-log EC50 (pEC50) is > 9.00.

With `Cc1cc(-n2nc3c(c2-n2ccn(-c4ccc5c(c4)N(C)C(=O)C54CCN(C(=O)[C@@H]5C[C@H]5F)CC4)c2=O)[C@H](C)N(C(=O)c2cc4cc([C@H]5CCOC(C)(C)C5)ccc4n2[C@@]2(c4noc(=O)[nH]4)C[C@@H]2C)CC3)cc(C)c1F` [Compound 13], the pEC50 was > 9.00.

For `[2H]C([2H])([2H])N1C(=O)C2(CCN(S(=O)(=O)C3CC3)CC2)c2ccc(-n3ccn(-c4c5c(nn4-c4cc(C)c(F)c(C)c4)CCN(C(=O)c4cc6cc([C@H]7CCOC(C)(C)C7)ccc6n4[C@@]4(c6noc(=O)[nH]6)C[C@@H]4C)[C@H]5C)c3=O)cc21` [Compound 38], the pEC50 is > 9.00.

`Cc1cc(-n2nc3c(c2-n2ccn(-c4ccc5c(c4)N(C)C(=O)C54CCN(C(=O)COCC5CC5(F)F)CC4)c2=O)[C@H](C)N(C(=O)c2cc4cc([C@H]5CCOC(C)(C)C5)ccc4n2[C@@]2(c4noc(=O)[nH]4)C[C@@H]2C)CC3)cc(C)c1F` (stereo partly drawn) [Compound 37]: the pEC50 is > 9.00.

As for `[2H]C([2H])([2H])N1C(=O)C2(CCOCC2)c2ccc(-n3ccn(-c4c5c(nn4-c4ccc(F)c(C6(F)CC6)c4)CCN(C(=O)c4cc6cc([C@H]7CCOC(C)(C)C7)ccc6n4[C@@]4(c6noc(=O)[nH]6)C[C@@H]4C)[C@H]5C)c3=O)c(F)c21` [Compound 45], the pEC50 is > 9.00.

Consider `[2H]C([2H])([2H])N1C(=O)C2(CCN(C(=O)C3CC3F)CC2)c2ccc(-n3ccn(-c4c5c(nn4-c4cc(C)c(F)c(C)c4)CCN(C(=O)c4cc6cc(C7CCOC(C)(C)C7)ccc6n4C4(c6noc(=O)[nH]6)CC4C)C5C)c3=O)cc21` (stereo not drawn) [Compound 40], for which the pEC50 is > 9.00.

For `[2H]C([2H])([2H])N1C(=O)C2(CCOCC2)c2ccc(-n3ccn(-c4c5c(nn4-c4ccc(F)c(C6(F)CC6)c4)CCN(C(=O)c4cc6cc([C@H]7CCOC(C)(C)C7)ccc6n4[C@@]4(c6noc(=O)[nH]6)C[C@@H]4C)[C@H]5C)c3=O)cc21` [Compound 44], the pEC50 is > 9.00.

With `[2H]C([2H])([2H])N1C(=O)C2(CCOCC2)c2ccc(-n3ccn(-c4c5c(nn4-c4ccc(F)c(C6(F)CC6)c4)CCN(C(=O)c4cc6cc(C7CCOCC7)ccc6n4[C@@]4(c6noc(=O)[nH]6)C[C@@H]4C)[C@H]5C)c3=O)c(F)c21` [Compound 51], the negative-log EC50 (pEC50) was > 9.00.

With `COP(=O)(OC)N1CCC2(CC1)C(=O)N(C)c1cc(-n3ccn(-c4c5c(nn4-c4cc(C)c(F)c(C)c4)CCN(C(=O)c4cc6cc([C@H]7CCOC(C)(C)C7)ccc6n4[C@@]4(c6noc(=O)[nH]6)C[C@@H]4C)[C@H]5C)c3=O)ccc12` [Compound 33], the pEC50 is > 9.00.

In the case of `C[C@H]1c2c(nn(-c3ccc(F)c(C4CC4)c3)c2-n2ccn(-c3ccc4c(c3F)N(C)C(=O)C43CCOCC3)c2=O)CCN1C(=O)c1cc2cc([C@H]3CCOC(C)(C)C3)ccc2n1[C@@]1(c2noc(=O)[nH]2)C[C@@H]1C` [Compound 42], the pEC50 was > 9.00.

On to `[2H]C([2H])([2H])N1C(=O)C2(CCOCC2)c2ccc(-n3ccn(-c4c5c(nn4-c4ccc(F)c(C(=C)F)c4)CCN(C(=O)c4cc6cc([C@H]7CCOC(C)(C)C7)ccc6n4[C@@]4(c6noc(=O)[nH]6)C[C@@H]4C)[C@H]5C)c3=O)cc21` [Compound 53], for which the pEC50 is > 9.00.

On to `Cc1cc(-n2nc3c(c2-n2ccn(-c4ccc5c(c4)N(C)C(=O)C54CCN(C(=O)c5cnn(C6CC6)c5)CC4)c2=O)[C@H](C)N(C(=O)c2cc4cc([C@H]5CCOC(C)(C)C5)ccc4n2[C@@]2(c4noc(=O)[nH]4)C[C@@H]2C)CC3)cc(C)c1F` [Compound 25], for which the negative logarithm of the EC50 (pEC50) is > 9.00.

Turning to `C[C@H]1c2c(nn(-c3ccc(F)c(C4(F)CC4)c3)c2-n2ccn(-c3ccc4c(c3F)N(C)C(=O)C43CCOCC3)c2=O)CCN1C(=O)c1cc2cc(C3CCOCC3)ccc2n1[C@@]1(c2noc(=O)[nH]2)C[C@@H]1C` [Compound 49], the pEC50 was > 9.00.

For `C=C(F)c1cc(-n2nc3c(c2-n2ccn(-c4ccc5c(c4)N(C)C(=O)C54CCOCC4)c2=O)[C@H](C)N(C(=O)c2cc4cc([C@H]5CCOC(C)(C)C5)ccc4n2[C@@]2(c4noc(=O)[nH]4)C[C@@H]2C)CC3)ccc1F` [Compound 52], the pEC50 was > 9.00.

Regarding `[2H]C([2H])([2H])N1C(=O)C2(CCOCC2)c2ccc(-n3ccn(-c4c5c(nn4-c4ccc(F)c(C6CC6)c4)CCN(C(=O)c4cc6cc([C@H]7CCOC(C)(C)C7)ccc6n4[C@@]4(c6noc(=O)[nH]6)C[C@@H]4C)[C@H]5C)c3=O)c(F)c21` [Compound 43], the pEC50 is > 9.00.

For `Cc1cc(-n2nc3c(c2-n2ccn(-c4ccc5c(c4)N(C)C(=O)C54CCN(C(=O)C5(CF)CC5)CC4)c2=O)[C@H](C)N(C(=O)c2cc4cc([C@H]5CCOC(C)(C)C5)ccc4n2[C@@]2(c4noc(=O)[nH]4)C[C@@H]2C)CC3)cc(C)c1F` [Compound 35], the pEC50 is > 9.00.

For `[2H]C([2H])([2H])N1C(=O)C2(CCOCC2)c2ccc(-n3ccn(-c4c5c(nn4-c4cc(C)c(F)c(C)c4)CCN(C(=O)c4cc6cc(C7CCOCC7)ccc6n4[C@@]4(c6noc(=O)[nH]6)C[C@@H]4C)[C@H]5C)c3=O)cc21` [Compound 58], the negative logarithm of the EC50 (pEC50) is > 9.00.

In the case of `Cc1cc(-n2nc3c(c2-n2ccn(-c4ccc5c(c4F)N(C)C(=O)C54CCOCC4)c2=O)[C@H](C)N(C(=O)c2cc4cc(C5CCOCC5)ccc4n2[C@@]2(c4noc(=O)[nH]4)C[C@@H]2C)CC3)cc(C)c1F` [Compound 56], the pEC50 was > 9.00.

Consider `Cc1cc(-n2nc3c(c2-n2ccn(-c4ccc5c(c4)N(C)C(=O)C54CCCC4)c2=O)[C@H](C)N(C(=O)c2cc4cc([C@H]5CCOC(C)(C)C5)ccc4n2[C@@]2(c4noc(=O)[nH]4)C[C@@H]2C)CC3)cc(C)c1F` [Compound 5], for which the pEC50 is > 9.00.

As for `Cc1cc(-n2nc3c(c2-n2ccn(-c4ccc5c(c4)N(C)C(=O)C54CCN(C(=O)N[C@@H]5C[C@@H]5F)CC4)c2=O)[C@H](C)N(C(=O)c2cc4cc([C@H]5CCOC(C)(C)C5)ccc4n2[C@@]2(c4noc(=O)[nH]4)C[C@@H]2C)CC3)cc(C)c1F` [Compound 17], the negative-log EC50 (pEC50) was > 9.00.

For the compound `Cc1cc(-n2nc3c(c2-n2ccn(-c4ccc5c(c4)N(C)C(=O)C54CCN(C(=O)C5COC5)CC4)c2=O)[C@H](C)N(C(=O)c2cc4cc([C@H]5CCOC(C)(C)C5)ccc4n2[C@@]2(c4noc(=O)[nH]4)C[C@@H]2C)CC3)cc(C)c1F` [Compound 18], the pEC50 is > 9.00.

Regarding `Cc1cc(-n2nc3c(c2-n2ccn(-c4ccc5c(c4)N(C)C(=O)C54CCN(C(=O)C56CC(F)(C5)C6)CC4)c2=O)[C@H](C)N(C(=O)c2cc4cc([C@H]5CCOC(C)(C)C5)ccc4n2[C@@]2(c4noc(=O)[nH]4)C[C@@H]2C)CC3)cc(C)c1F` [Compound 26], the negative logarithm of the EC50 (pEC50) was > 9.00.

Consider `Cc1cc(-n2nc3c(c2-n2ccn(-c4ccc5c(c4)N(C)C(=O)C54CCOCC4)c2=O)[C@H](C)N(C(=O)c2cc4cc(C5CCOCC5)ccc4n2[C@@]2(c4noc(=O)[nH]4)C[C@@H]2C)CC3)cc(C)c1F` [Compound 47], for which the negative-log EC50 (pEC50) was > 9.00.
